Reference: US12161114B2, “Overpowered ABA receptor agonists” (The Regents of the University of California, priority 2018, dated 2024)

Tests used:
wheat seedlings = assay: thermal imaging of leaf temperature (anti-transpirant activity), wheat; assay type: in vivo, Triticum aesitivum
Procedure: To evaluate the effects of the optimized ligands on transpiration, we performed quantitative thermal imaging of 2 week old wheat seedlings (var. Cal Rojo) after chemical or mock treatments. Each pot contained 15 seedlings and was treated as a single replicate for a total of n=4. Seedlings were treated with 10 mL aerosolized solutions containing compounds of interest dissolved in 0.5% DMSO and 0.05% Silwet-77 (Lehle seeds). Thermal images were collected using a FLIR T62101 camera ˜24 hours post treatment. Average leaf temperatures were obtained by averaging the temperatures measured from between 10-15 ˜1 cm^2 area spots from the 15 plants sowed in each replicate pot.
To gain more detailed comparisons of the potency and persistence of different ABA agonists, we treated wheat seedlings (var. WB9229) with a range of agonist concentrations (mock, 11, 33, 100, 300 μM) and collected leaf temperature data at 24 hour intervals for 5 days. Mock treated samples were analyzed with 10 replicates and chemical treatments with 5 replicates. […] The corrected p-values for treatment effects at all time points is summarized in the inset table and highlighted yellow if a significant increase in leaf temperature was observed.

[1] = tested on: pyr1/pyl1, pyl8/pyl9 and abi1C mutants; assay: seed germination on receptor mutants and ABA signalling mutant abi1C; assay type: in vivo, Arabidopsis; conditions: tested at twice the EC50
Procedure: Prior to selecting a scaffold for optimization we conducted Arabidopsis seed germination assays to establish if the hits obtained are activity in vivo. Germination experiments were performed with surface sterilized wild type Columbia Arabidopsis thaliana seeds and abi1C (the abi1-1 allele isolated in the Columbia ecotype) plated onto 0.7% agar medium containing 1/2-x MS salts, 0.5% sucrose and differing concentrations of the test compounds. After 4d of stratification at 4° C., the plates were transferred to a growth chamber under continuous illumination and evaluated after 4 days.
Methods similar to example 3 were followed.

PYR1 = target: T1, PYR1 (Arabidopsis thaliana, UniProt O49686); assay: receptor-mediated PP2C inhibition assay, fluorescence based, PYR1; assay type: biochemical
T1 construct: made in house
T1 sequence (O49686 1-191): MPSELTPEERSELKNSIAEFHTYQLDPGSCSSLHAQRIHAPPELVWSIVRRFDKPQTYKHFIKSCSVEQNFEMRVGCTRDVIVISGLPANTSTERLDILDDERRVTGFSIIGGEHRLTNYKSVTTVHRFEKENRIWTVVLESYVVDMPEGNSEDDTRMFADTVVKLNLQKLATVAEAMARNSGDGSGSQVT
T1 sequence (Q9CAJ0 180-511 partner limits assumed): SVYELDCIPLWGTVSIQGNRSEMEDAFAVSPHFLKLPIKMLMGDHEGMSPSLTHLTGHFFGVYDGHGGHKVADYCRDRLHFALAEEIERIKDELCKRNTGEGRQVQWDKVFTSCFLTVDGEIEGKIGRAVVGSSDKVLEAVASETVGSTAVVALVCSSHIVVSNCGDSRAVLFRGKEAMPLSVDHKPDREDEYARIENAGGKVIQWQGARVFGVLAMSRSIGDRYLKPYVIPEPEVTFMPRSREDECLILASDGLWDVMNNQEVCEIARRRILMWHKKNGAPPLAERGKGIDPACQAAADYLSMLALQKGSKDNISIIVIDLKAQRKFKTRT
Procedure: Each ligand was tested at concentrations spanning 7 points between 4 nM and 50 μM in triplicate in a reaction buffer containing 100 mM Tris-HCl-pH7.9, 100 mM NaCl, 30 μg/ml BSA, 0.1% 2-mercaptoethanol, 25 nM ΔN-HAB1, 1 mM 4-methylumbelliferyl phosphate, and different recombinant ABA receptors at 50 nM or 300 nM (for PYL9 or PYL11). The substrate was added ˜20 minutes after the other components had been mixed and fluorescence data collected. Control carrier solvent-only wells were included as a reference and %-activity for tested compounds calculated relative to this control. The dose response data (PP2C activity versus agonist concentration) was fit to a log (inhibitor) vs. response-(variable slope) model using non-linear regression to infer the IC50S, using GraphPad Prism 6.0, to yield the IC50 values shown in FIG. 6.
The potency and selectivity of ligands 2b, 2e-f was established by testing their ability to activate multiple ABA receptor subtypes using the fluorescence based phosphasted assay as outlined in example 2 at a range of concentrations (4 nM to 50 μM). […]
We first explored if replacing the cyclopropyl group with an isopropyl group affects the activity of the ligand against PYR1. Ligands were tested using the fluorescence based PP2C assay described in example 2.

N#Cc1c(C2CC2)cc(CC(=O)NC2(C(=O)O)CCCCC2)cc1C1CC1 [2f, 1-[2-(4-cyano-3,5-dicyclopropylphenyl)acetamido]cyclohexane-1-carboxylic acid]
anti-transpirant activity (leaf temperature) (wheat seedlings; var. Cal Rojo, 50 μM, ~24 hours post treatment): highly efficacious anti-transpirant
thermal response, potency and persistence (wheat seedlings; var. WB9229, 11, 33, 100, 300 μM, 24 hour intervals for 5 days): potent and persistent thermal response
effect on germination in receptor mutant backgrounds [1]: only show diminished activity in the pyr1/pyl1 mutant
increased potency on PYR1 relative to ABA (PYR1): ~10 ×
